{"source": "paper PMC3720905", "about": "“A Conserved Aspartic Acid Is Important for Agonist (VUAA1) and Odorant/Tuning Receptor-Dependent Activation of the Insect Odorant Co-Receptor (Orco)” (PLoS ONE, 2013)", "key": {"[1]": {"target": "T1, DmelOrco/DmelOR22a complex (Drosophila melanogaster, UniProt P81909)", "T1 construct": "gene Or22a; heteromeric channel; Or22a in pCI transiently transfected into Flp-In 293 T-REX cells stably expressing N-myc DmelOrco; stoichiometry unknown; with Odorant receptor coreceptor", "T1 sequence (P81909 1-397)": "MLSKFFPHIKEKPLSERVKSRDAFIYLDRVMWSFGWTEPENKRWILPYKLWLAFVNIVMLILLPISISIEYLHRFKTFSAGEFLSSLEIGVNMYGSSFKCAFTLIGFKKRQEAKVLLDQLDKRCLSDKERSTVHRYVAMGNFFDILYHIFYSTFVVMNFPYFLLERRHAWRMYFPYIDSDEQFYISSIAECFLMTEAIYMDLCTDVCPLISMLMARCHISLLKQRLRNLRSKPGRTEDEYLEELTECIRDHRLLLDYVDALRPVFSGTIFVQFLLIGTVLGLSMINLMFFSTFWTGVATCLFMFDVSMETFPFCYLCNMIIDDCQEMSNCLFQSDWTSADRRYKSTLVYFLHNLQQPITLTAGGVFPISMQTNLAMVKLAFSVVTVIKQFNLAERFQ", "T1 sequence (Q9VNB5 1-486 partner)": "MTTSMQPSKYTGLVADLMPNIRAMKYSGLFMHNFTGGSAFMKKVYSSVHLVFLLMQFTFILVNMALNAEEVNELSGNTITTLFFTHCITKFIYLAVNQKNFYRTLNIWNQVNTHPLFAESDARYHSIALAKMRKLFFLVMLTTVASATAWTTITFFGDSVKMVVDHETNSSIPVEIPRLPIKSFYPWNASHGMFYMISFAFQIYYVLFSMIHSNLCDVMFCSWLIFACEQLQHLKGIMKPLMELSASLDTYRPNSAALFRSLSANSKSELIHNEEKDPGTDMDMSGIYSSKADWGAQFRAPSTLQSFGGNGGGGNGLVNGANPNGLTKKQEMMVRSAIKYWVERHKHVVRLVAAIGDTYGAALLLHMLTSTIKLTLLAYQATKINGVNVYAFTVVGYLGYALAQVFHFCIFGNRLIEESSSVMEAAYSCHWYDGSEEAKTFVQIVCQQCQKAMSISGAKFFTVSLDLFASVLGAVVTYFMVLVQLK", "experiment": "Ca2+ influx (Fluo-4 AM fluorescence)", "format": "cell-based", "settings": "heteromeric channel, odorant agonist; data not shown"}, "[2]": {"target": "T1, DmelOrco/DmelOR22a complex", "experiment": "Ca2+ influx (Fluo-4 AM fluorescence)", "format": "cell-based"}, "DmelOrco/AgOR65 complex [3]": {"tested_on": "T2, DmelOrco/AgOR65 complex", "T2 construct": "gene Or65; mixed-species heteromeric channel; AgOR65 in pCI transfected into Flp-In 293 T-REX cells stably expressing N-myc DmelOrco; with Odorant receptor coreceptor (Drosophila melanogaster)", "experiment": "Ca2+ influx (Fluo-4 AM fluorescence)", "format": "cell-based, Anopheles gambiae", "settings": "log10 of molar EC50 (unit not given); heteromeric channel, odorant agonist"}, "DmelOrco/AgOR65 complex [4]": {"tested_on": "T2, DmelOrco/AgOR65 complex", "experiment": "Ca2+ influx (Fluo-4 AM fluorescence)", "format": "cell-based, Anopheles gambiae", "settings": "log10 of molar EC50 (unit not given); heteromeric channel, odorant agonist", "remark": "listed apart in the source"}, "DmelOrco/AgOR65 complex [5]": {"tested_on": "T2, DmelOrco/AgOR65 complex", "experiment": "Ca2+ influx (Fluo-4 AM fluorescence)", "format": "cell-based, Anopheles gambiae", "settings": "log10 of molar EC50 (unit not given); heteromeric channel, odorant agonist", "remark": "listed apart in the source"}, "[6]": {"target": "T3, DmelOrco (N-myc DmelOrco) (Drosophila melanogaster, UniProt Q9VNB5)", "T3 construct": "gene Orco; homomeric channel; ~50 kDa band", "T3 sequence (Q9VNB5 1-486)": "T1 sequence (Q9VNB5 1-486 partner)", "experiment": "Ca2+ influx (Fluo-4 fluorescence)", "format": "cell-based"}, "[7]": {"target": "T4, DmelOrco (N-myc DmelOrco) (Drosophila melanogaster, UniProt Q9VNB5, D357N)", "T4 construct": "gene Orco; homomeric channel; ~50 kDa band", "T4 sequence (Q9VNB5 1-486 D357N)": "T1 sequence (Q9VNB5 1-486 partner)", "experiment": "Ca2+ influx (Fluo-4 fluorescence)", "format": "cell-based"}, "[8]": {"target": "T5, DmelOrco (N-myc DmelOrco) (Drosophila melanogaster, UniProt Q9VNB5, D466E)", "T5 construct": "gene Orco; homomeric channel; ~50 kDa band", "T5 sequence (Q9VNB5 1-486 D466E)": "T1 sequence (Q9VNB5 1-486 partner)", "experiment": "Ca2+ influx (Fluo-4 fluorescence)", "format": "cell-based"}, "[9]": {"target": "T6, DmelOrco (N-myc DmelOrco) (Drosophila melanogaster, UniProt Q9VNB5, D466N)", "T6 construct": "gene Orco; homomeric channel; ~50 kDa band", "T6 sequence (Q9VNB5 1-486 D466N)": "T1 sequence (Q9VNB5 1-486 partner)", "experiment": "Ca2+ influx (Fluo-4 fluorescence)", "format": "cell-based"}}, "data": [{"smiles": "CCCCCC(=O)OCC", "note": "[ethyl hexanoate]", "values": [{"measurement": "Ca2+ influx (Fluo-4 AM fluorescence)", "setting": "[1]", "result": "Essentially identical responses were observed to ethyl hexanoate"}]}, {"smiles": "CCCCCC(=O)OC", "note": "[methyl hexanoate]", "values": [{"measurement": "EC50", "setting": "[2]", "result": 0.417, "unit": "µM"}]}, {"smiles": "C=CCc1ccc(O)c(OC)c1", "note": "[eugenol]", "values": [{"measurement": "LogEC50", "setting": "DmelOrco/AgOR65 complex [3]", "result": "-6.54±0.05"}, {"measurement": "LogEC50", "setting": "DmelOrco/AgOR65 complex [4]", "result": "-6.34±0.04"}, {"measurement": "LogEC50", "setting": "DmelOrco/AgOR65 complex [5]", "result": "-6.75±0.03"}]}, {"smiles": "CCc1ccc(NC(=O)CSc2nnc(-c3cccnc3)n2CC)cc1", "note": "[VUAA1, N-(4-ethylphenyl)-2-((4-ethyl-5-(3-pyridinyl)-4H-1,2,4-triazol-3-yl)thio)acetamide]", "values": [{"measurement": "EC50", "setting": "[6]", "result": 46.8, "unit": "µM"}, {"measurement": "EC50", "setting": "[7]", "result": 38, "unit": "µM"}, {"measurement": "EC50", "setting": "[8]", "result": 21.4, "unit": "µM"}, {"measurement": "EC50", "setting": "[9]", "result": 85.1, "unit": "µM"}]}]}
